What all share (test): growth of human tumour cells (NCI), 48 h
The subject of test [1] is SK-MEL-28 melanoma.
For test [2], the system named is DU-145 prostate.
The subject of test [3] is NCI-H23 lung.
Test [4] relates to 786-0 renal.
Test [5] concerns NCI-H522 lung.
Test [6] concerns OVCAR-4 ovarian.
The test system of test [7] is LOX IMVI melanoma.
Test [8] has as its system MALME-3M melanoma.
The test system of test [9] is SK-MEL-5 melanoma.
The test system of test [10] is UACC-62 melanoma.

Each structure is given as a SMILES string. Values joined by “and” are separate entries in the source; they are usually repeats but may differ in a detail not shown here. Equal entries are not always repeated.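 Five compound concentrations were applied to cells in 96-well plates for 48 hours; endpoints were derived by simple linear interpolation of the resulting dose-response curve. GI50 marks 50% less growth. TGI is the concentration that stops growth completely.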 Where a SMILES comes first, the peptide text is derived from it. [ ]: non-standard residue; d: D form. The star is where a group is joined. Bn2Val = CC(C)[C@@H](C(=O)*)N(Cc1ccccc1)Cc1ccccc1; NH(3,4-diMeO-benzyl) = COc1ccc(CN*)cc1OC; NMeV = CN[C@H](C(=O)O)C(C)C; dNMeA = CN[C@H](C)C(=O)O

The text below walks through data of PubChem BioAssay (NCI).

Regarding `COC(=O)c1c2c(c(C)[n+]([O-])c1C)C(=O)C=CC2=O`, the GI50 was 1.96 µM in test [1]; 1.82 µM in test [2]; 1.63 µM in test [3]; 2.06 µM in test [4]; 1.66 µM in [5]; 1.2 µM in [6]. Besides, the GI50 was 1.44 µM in [7], 1.53 µM in test [8], 1.14 µM in test [9] and 1.63 µM in test [10]. Also, the TGI in [1] turned out to be 3.6 µM; in test [2] it was 3.22 µM; in [3] it was 4.27 µM; in test [4], 4.51 µM; in test [5], 3.67 µM; in [6], 2.47 µM. For the same molecule, the TGI in test [7] was found to be 3.04 µM; in test [8], 2.92 µM; in [9], 2.41 µM; in [10] it was 3.21 µM.
For `S=C1NCCN1C1=Nc2ccccc2CO1`, the GI50 in [1], in [2], in test [3], in test [4], in test [5] and in test [6] was > 100 µM throughout. Further, the GI50 in [7] was > 100 µM; in test [8], > 100 µM; in [9], 41.7 µM; in [10] it was > 100 µM. In addition, the TGI in test [1], in test [2], in test [3], in test [4], in test [5] and in test [6] was > 100 µM throughout. Further, the TGI is > 100 µM in test [7], > 100 µM in test [8], 99.4 µM in test [9] and > 100 µM in test [10].
In the case of `C[C@@H]1Cc2c([nH]c3ccccc23)[C@@H](c2c(F)cc(/C=C/C(=O)O)cc2F)N1CC(C)(C)F`, the GI50 in test [1] is 13.1 µM; in [2] it was 19.1 µM; in test [3], 11.2 µM; in test [4], 14.2 µM; in test [5], 14 µM; in test [6], 15.2 µM. The GI50 is 12.3 µM in test [7], 15.5 µM in test [8], 10.7 µM in [9] and 3.9 µM in test [10]. In addition, the TGI in test [1] was 30.9 µM; in test [2], > 62.3 µM; in test [3], 33.8 µM; in test [4], 28.1 µM; in test [5] it was 33.6 µM; in test [6] it was 52.8 µM. For the same molecule, the TGI in test [7] came to 27.2 µM; in test [8] it was 34.3 µM; in [9], 24.4 µM; in test [10], 17.3 µM.
As for `COc1ccc(CNC(=O)[C@@H](C)N(C)C(=O)[C@@H]2CCCN2C(=O)[C@H](C(C)C)N(C)C(=O)[C@@H](NC(=O)[C@H](C(C)C)N(Cc2ccccc2)Cc2ccccc2)C(C)C)cc1OC` (Bn2Val-V[NMeV]P[dNMeA]-{NH(3,4-diMeO-benzyl)}), the GI50 in test [1] is 13.5 µM; in test [4], 11.4 µM; in test [5] it was 9.05 µM; in test [6], 7.54 µM; in [7] it was 6.35 µM; in [8], 14.8 µM. Also, the GI50 in test [10] was 13.5 µM. Also, the TGI was 17.6 µM and 28.3 µM in test [1]; 50 µM and 42.3 µM in test [2]; 26.6 µM and 42.4 µM in [3]; 21.3 µM and 28.3 µM in [4]; 10.7 µM and 45.1 µM in test [5]; 50 µM and 42.2 µM in [6]. Further, the TGI was 15.4 µM and 26.2 µM in test [7]; 15.6 µM and 31.9 µM in test [8]; 12.1 µM in test [9]; 14 µM and 27.2 µM in test [10].
Consider `CC(=O)c1ccc(N(/C=C/C(=O)C(F)(F)F)CC(=O)c2ccc(Cl)c(Cl)c2)cc1`, for which the GI50 was 16.5 µM in [1]; 19.2 µM in test [2]; 18 µM in test [3]; 17.8 µM in [4]; 13.2 µM in test [5]; 14 µM in [6]. For the same molecule, the GI50 in test [7] was 12.4 µM; in test [8], 11.7 µM; in test [9], 17.7 µM; in test [10] it was 7.01 µM. Further, the TGI in test [1] is 40.7 µM; in test [2], 36.1 µM; in test [3], 35.6 µM; in test [4] it was 32 µM; in [5] it was 27.7 µM; in [6], 33.4 µM. Besides, the TGI in [7] was determined as 26.8 µM; in [8] it was 25 µM; in [9] it was 32.4 µM; in [10], 19.8 µM.
As for `Cc1c(Cl)cccc1Nc1ncccc1C(=O)O`, the GI50 was > 100 µM in [1]; > 100 µM in test [2]; 58.3 µM in test [3]; 70.4 µM in test [4]; 81.2 µM in test [5]; 90.6 µM in test [6]. For the same molecule, the GI50 in test [7] is 54.9 µM; in test [8] it was 73.4 µM; in test [9] it was 52.7 µM; in [10], 48.3 µM. Also, the TGI in test [1], in test [2], in [3], in test [4], in test [5] and in test [6] was > 100 µM in each case. Besides, the TGI in test [7], in test [8], in [9] and in [10] was > 100 µM throughout.
